Data taken from patent US7138404B2, “4-aminopyrimidine derivatives” (Hoffmann-La Roche Inc., priority 2001, dated 2006).

Biological target: T1, rat mGlu 5a receptor (Rattus norvegicus, UniProt P31424)
T1 construct: expressed in transfected cells; host or cells: EBNA cells (transient transfection)
Assay: [Ca2+]i measurement (FLIPR) on mGlu 5a transfected EBNA cells, antagonist mode
Assay type: cell-based
Conditions: rat mGlu 5a transiently transfected EBNA cells; Fluo 3-AM; tested against 10 μM glutamate as agonist
Description: The pharmacological activity of the compounds was tested using the following method:
cDNA encoding rat mGlu 5a receptor was transiently transfected into EBNA cells using a procedure described by E. -J. Schlaeger and K. Christensen (Cytotechnology 1998, 30, 71–83). [Ca^2+]i measurements were performed on mGlu 5a transfected EBNA cells after incubation of the cells with Fluo 3-AM (obtainable by FLUKA, 0.5 μM final concentration) for 1 hour at 37° C. followed by 4 washes with assay buffer (DMEM supplemented with Hank's salt and 20 mM HEPES. [Ca^2+]i measurements were done using a fluorometric imaging plate reader (FLIPR, Molecular Devices Corporation, La Jolla, Calif., USA). When compounds were evaluated as antagonists they were tested against 10 μM glutamate as agonist.
The inhibition (antagonists) curves were fitted with a four parameter logistic equation giving IC50, and Hill coefficient using the iterative non linear curve fitting software Origin (Microcal Software Inc., Northampton, Mass., USA).

T1 sequence (P31424 21-1171 isoform P31424-2 limits assumed): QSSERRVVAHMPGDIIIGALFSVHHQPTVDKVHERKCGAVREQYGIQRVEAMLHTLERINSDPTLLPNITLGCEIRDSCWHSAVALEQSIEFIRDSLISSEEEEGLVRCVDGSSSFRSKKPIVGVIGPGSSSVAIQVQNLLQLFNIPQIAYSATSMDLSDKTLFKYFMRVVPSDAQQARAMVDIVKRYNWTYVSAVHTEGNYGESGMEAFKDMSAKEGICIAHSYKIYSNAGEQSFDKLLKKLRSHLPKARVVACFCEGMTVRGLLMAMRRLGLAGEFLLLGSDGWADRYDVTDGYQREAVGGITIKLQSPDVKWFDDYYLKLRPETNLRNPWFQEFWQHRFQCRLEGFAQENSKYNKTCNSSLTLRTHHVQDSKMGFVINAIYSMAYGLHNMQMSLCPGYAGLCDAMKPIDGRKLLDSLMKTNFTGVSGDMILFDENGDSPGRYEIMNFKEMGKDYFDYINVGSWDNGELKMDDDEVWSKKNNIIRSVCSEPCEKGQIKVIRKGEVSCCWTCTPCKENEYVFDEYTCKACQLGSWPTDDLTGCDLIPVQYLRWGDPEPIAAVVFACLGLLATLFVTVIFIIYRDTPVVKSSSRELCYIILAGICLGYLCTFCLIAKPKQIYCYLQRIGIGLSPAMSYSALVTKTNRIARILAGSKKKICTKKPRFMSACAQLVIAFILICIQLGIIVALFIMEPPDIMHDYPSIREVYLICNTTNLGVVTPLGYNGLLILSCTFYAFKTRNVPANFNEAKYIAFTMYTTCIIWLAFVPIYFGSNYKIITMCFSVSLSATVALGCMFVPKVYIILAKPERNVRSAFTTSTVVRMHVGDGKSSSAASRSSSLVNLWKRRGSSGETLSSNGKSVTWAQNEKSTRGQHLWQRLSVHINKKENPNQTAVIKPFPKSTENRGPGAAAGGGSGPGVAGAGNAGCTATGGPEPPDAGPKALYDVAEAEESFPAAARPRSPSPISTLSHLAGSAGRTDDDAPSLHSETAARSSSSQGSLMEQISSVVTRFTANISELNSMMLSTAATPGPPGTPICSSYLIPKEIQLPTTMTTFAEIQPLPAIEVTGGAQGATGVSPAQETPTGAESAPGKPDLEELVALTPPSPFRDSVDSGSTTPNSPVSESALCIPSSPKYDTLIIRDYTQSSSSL

| SMILES | IC50 [nM] |
| --- | --- |
| CCOC(=O)CSc1ncc(Cc2ccccc2)c(N)n1 [Example 3, (4-Amino-5-benzyl-pyrimidin-2-ylsulfanyl)-acetic acid ethyl ester] | 140 |
| CCOC(=O)CSc1ncc(Cc2cccn2C)c(N)n1 [Example 4, [4-Amino-5-(1-methyl-1H-pyrrol-2-ylmethyl)-pyrimidin-2-ylsulfanyl]-acetic acid ethyl ester] | 380 |
| CCOC(=O)CSc1ncc(-c2ccc(Cl)cc2Cl)c(N)n1 [Example 5, [4-Amino-5-(2,4-dichloro-phenyl)-pyrimidin-2-ylsulfanyl]-acetic acid ethyl ester] | 3850 |
| CCOC(=O)CSc1ncc(Cc2ccc(Br)cc2)c(N)n1 [Example 6, [4-Amino-5-(4-bromo-benzyl)-pyrimidin-2-ylsulfanyl]-acetic acid ethyl ester] | 180 |
| C#CCSc1ncc(Cc2cccs2)c(N)n1 [Example 8, 2-Prop-2-ynylsulfanyl-5-thiophen-2-ylmethyl-pyrimidin-4-ylamine] | 1390 |
| C=CCSc1ncc(Cc2cccs2)c(N)n1 [Example 9, 2-Allylsulfanyl-5-thiophen-2-ylmethyl-pyrimidin-4-ylamine] | 2790 |
| Nc1nc(SCc2ncon2)ncc1Cc1cccs1 [Example 11, 2-([1,2,4]Oxadiazol-3-ylmethylsulfanyl)-5-thiophen-2-ylmethyl-pyrimidin-4-ylamine] | 400 |
| CCOC(=O)CSc1ncc(Cc2ccsc2)c(N)n1 [Example 12, (4-Amino-5-thiophen-3-ylmethyl-pyrimidin-2-ylsulfanyl)-acetic acid ethyl ester] | 180 |
| CCOC(=O)CSc1ncc(Cc2ccoc2)c(N)n1 [Example 13, (4-Amino-5-furan-3-ylmethyl-pyrimidin-2-ylsulfanyl)-acetic acid ethyl ester] | 160 |
| CCOC(=O)CSc1ncc(C(=O)OCC)c(N)n1 [Example 19, 4-Amino-2-ethoxycarbonylmethylsulfanyl-pyrimidine-5-carboxylic acid ethyl ester] | 270 |
| CCNc1nc(SCC(=O)OCC)ncc1Cc1cccs1 [Example 21, (4-Ethylamino-5-thiophen-2-ylmethyl-pyrimidin-2-ylsulfanyl)-acetic acid ethyl ester] | 600 |
| C=CCOC(=O)CSc1ncc(Cc2ccccc2)c(N)n1 [Example 22, (4-Amino-5-benzyl-pyrimidin-2-ylsulfanyl)-acetic acid allyl ester] | 120 |
| CC1CC1COC(=O)CSc1ncc(Cc2ccccc2)c(N)n1 (centres unmarked) [Example 24, (4-Amino-5-benzyl-pyrimidin-2-ylsulfanyl)-acetic acid 2-methyl-cyclopropylmethyl ester] | 630 |
| Nc1nc(SCC(=O)OCC2CCC2)ncc1Cc1ccccc1 [Example 25, (4-Amino-5-benzyl-pyrimidin-2-ylsulfanyl)-acetic acid cyclobutylmethyl ester] | 1460 |
| Nc1nc(SCC(=O)OCC2CC2)ncc1Cc1ccccc1 [Example 29, (4-Amino-5-benzyl-pyrimidin-2-ylsulfanyl)-acetic acid cyclopropylmethyl ester] | 200 |
| CCOC(=O)CSc1ncc(Cc2cccs2)c(NCC(C)C)n1 [Example 31] | 160 |

Test system: not given
Assay: not given
Conditions: not given

| SMILES | melting point [°C] |
| --- | --- |
| Nc1nc(SCc2nc(C3CC3)no2)ncc1Cc1ccccc1 [Example 33, 5-Benzyl-2-(3-cyclopropyl-[1,2,4]oxadiazol-5-ylmethylsulfanyl)-pyrimidin-4-ylamine] | 94 |
